Assay results reported in PubChem BioAssay (NCI).
Values joined by “and” are separate entries in the source; they are usually repeats but may differ in a detail not shown here. Identical values can stand only once.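 Tested at 5 concentrations; 48 h exposure; 96-well plates; endpoints linearly interpolated, else capped at highest concentration. GI50 is the concentration that inhibits growth by half. At the TGI there is no net growth.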

Tests used:
Experiment in all cases: inhibition of tumour cell growth, NCI panel, 48 h
PC-3 prostate = tested on: PC-3 prostate
LOX IMVI melanoma = tested on: LOX IMVI melanoma
OVCAR-8 ovarian = tested on: OVCAR-8 ovarian
HOP-92 NSCLC = tested on: HOP-92 NSCLC
SW-620 colon = tested on: SW-620 colon
SK-MEL-5 melanoma = tested on: SK-MEL-5 melanoma
A498 renal = tested on: A498 renal
SF-295 CNS = tested on: SF-295 CNS
K-562 leukemia = tested on: K-562 leukemia
CAKI-1 renal = tested on: CAKI-1 renal

Row | Structure (SMILES) | GI50 (PC-3 prostate) | TGI (PC-3 prostate) | GI50 (LOX IMVI melanoma) | TGI (LOX IMVI melanoma) | GI50 (OVCAR-8 ovarian) | TGI (OVCAR-8 ovarian) | GI50 (HOP-92 NSCLC) | TGI (HOP-92 NSCLC) | GI50 (SW-620 colon) | TGI (SW-620 colon) | GI50 (SK-MEL-5 melanoma) | TGI (SK-MEL-5 melanoma) | GI50 (A498 renal) | TGI (A498 renal) | GI50 (SF-295 CNS) | TGI (SF-295 CNS) | GI50 (K-562 leukemia) | TGI (K-562 leukemia) | GI50 (CAKI-1 renal) | TGI (CAKI-1 renal)
1 | Clc1c(Cl)[n+](Cc2ccc3ccccc3c2)cn1Cc1ccc2ccccc2c1 | 1.46 µM | 2.87 µM | 1.26 µM | 2.52 µM | 1.65 µM | 3.3 µM | 0.733 µM | 2.14 µM | 1.47 µM | 3 µM | 1.13 µM | 2.39 µM | 1.23 µM | 2.92 µM | 1.4 µM | 2.82 µM | 1.71 µM | 3.73 µM |  | 
2 | OC(CNc1ccnc2cc(Cl)ccc12)CNc1ccnc2cc(Cl)ccc12 | 1.6 µM | 3.1 µM |  |  |  |  | 4.22 µM | 19.1 µM | 1.66 µM | 3.21 µM | 1.58 µM | 3.02 µM | 11 µM | 25.3 µM | 1.82 µM | 3.56 µM |  |  | 31.1 µM | > 100 µM
3 | C[C@@H](Oc1cc(-n2cnc3ccc(OC4CCN(C)CC4)cc32)sc1C(N)=O)c1ccccc1Cl | 0.0153 µM | 6.02 µM | 0.0146 µM | 3.69 µM | 0.0197 µM | 3.36 µM | 0.0387 µM | 2.78 µM | 0.00875 µM | 3.48 µM | 0.0306 µM | 0.777 µM | 0.0403 µM | 0.301 µM | 0.0207 µM | 4.34 µM | 0.0102 µM | 4.9 µM | 1.08 µM | 6.08 µM
4 | CNC(=O)c1ccc(N2C(=S)N(c3cnc(C#N)c(C(F)(F)F)c3)C(=O)C23CCC3)cc1F | > 100 µM | > 100 µM | > 100 µM | > 100 µM | > 100 µM | > 100 µM | > 86.7 µM | > 100 µM | > 100 µM | > 100 µM | > 100 µM | > 100 µM | > 53.2 µM | > 100 µM | > 100 µM | > 100 µM | > 100 µM | > 100 µM | > 100 µM | > 100 µM
5 | CCOC(=O)C1=CCCC[C@H]1S(=O)(=O)Nc1ccc(F)cc1Cl | 34 µM | > 100 µM | 22.7 µM | > 100 µM | 27.9 µM | > 100 µM | 15.1 µM | 58.3 µM | 30 µM | > 100 µM | 10.5 µM | 24.5 µM | 42.6 µM | > 100 µM | 32.7 µM | > 100 µM | 26.4 µM | > 100 µM | 31.5 µM | > 100 µM
6 | COc1ccccc1Nc1cc(O)c2c(=O)cc(-c3ccccc3)oc2c1 | 5.13 µM | 41.6 µM | 3.41 µM | > 100 µM | 4.65 µM | > 100 µM | 3.76 µM | 23.7 µM | 2.5 µM | > 100 µM | 3 µM | 9.58 µM | 3.08 µM | 13.9 µM | 2.98 µM | 13.2 µM | 0.59 µM | > 100 µM | 4.24 µM | 20.3 µM
7 | Oc1c(Cl)cc(Cl)c(Cl)c1CNCCNCc1c(O)c(Cl)cc(Cl)c1Cl | 1.92 µM | 11.1 µM | 0.357 µM | 5.19 µM | 0.911 µM | 7.72 µM | 1.66 µM | 10.3 µM | 1.71 µM | > 50 µM | 1.35 µM | 8.06 µM | 3.03 µM | 17.3 µM | 1.26 µM | 20.3 µM | 0.483 µM | > 50 µM | 1.09 µM | 9.23 µM
8 | CC(C)C[C@H](NC(=O)CNC(=O)c1cc(Cl)ccc1Cl)B(O)O | 0.0486 µM | 0.841 µM | 0.0224 µM | 0.0597 µM | 0.0659 µM | 15.3 µM | 0.0231 µM | 0.165 µM | < 0.0173 µM |  | < 0.0136 µM | 0.0305 µM | < 0.0158 µM | 0.0336 µM | 0.0252 µM | 0.1 µM | 0.03 µM | 1.21 µM | < 0.0165 µM | 0.0676 µM
9 | C=C(c1ccc(OC)c(/C=C/C(=O)c2ccc3c(c2)OCO3)c1)c1cc(OC)c(OC)c(OC)c1 | 2.91 µM | > 100 µM | 1.58 µM | 3.52 µM | 2.89 µM | 18.2 µM | 1.78 µM | > 100 µM |  |  | 1.97 µM | 6.71 µM | 2.72 µM | > 100 µM | 4.14 µM | > 100 µM | 0.783 µM | 13.9 µM | 3.02 µM | > 100 µM
10 | O=C1N[C@@H]2[C@@H](O)[C@@H](O)[C@H](O)C[C@H]2c2cc3c(c(O)c21)OCCO3 | 0.293 µM | 2.54 µM | 0.167 µM | 0.444 µM | 0.287 µM | 3.21 µM | 0.116 µM | 0.892 µM | 0.233 µM | 1.55 µM | 0.192 µM | 0.478 µM | 0.392 µM | 1.58 µM | 0.388 µM | 2.65 µM | 0.13 µM | 11.2 µM | 0.989 µM | 6.14 µM
11 | O=C1NC(=C(Cl)Cl)/C(=N/S(=O)(=O)N2CCCCC2)N1 | 3.05 µM | 10.5 µM | 1.86 µM | 3.58 µM | 2.1 µM | 4.6 µM | 1.75 µM | 3.33 µM | 2.11 µM | 4.17 µM |  |  | 12.4 µM | 25.4 µM | 5.14 µM | 17.3 µM |  |  | 1.77 µM | 3.26 µM
12 | Cc1ccc(O)c(NC(=O)c2cccc(Nc3ccnc(C(F)(F)F)c3)c2)c1 | 11.4 µM | 38.5 µM | 9.46 µM | 27.4 µM | 5.52 µM | 19.7 µM | 2.24 µM | 21.1 µM | 14.6 µM | 38.5 µM | 2.15 µM | 14 µM | 5 µM | 20.5 µM | 6.73 µM | 27.6 µM |  |  | 11 µM | 31.8 µM
13 | NS(=O)(=O)OC[C@H]1C[C@@H](Nc2ccnc3cc(-c4cccc(SC(F)(F)F)c4)nn23)[C@H](O)[C@@H]1O | 0.0378 µM | 0.367 µM |  |  | 0.0216 µM | 0.0682 µM | 0.0308 µM | 0.0788 µM | 0.0422 µM | 1.37 µM | 0.0133 µM | 0.0278 µM | 0.013 µM | 0.0262 µM | 0.086 µM | 0.237 µM | < 0.014 µM | 1.23 µM | 0.181 µM | 0.477 µM
14 | O=c1c2c(nc3n1CCS3)[nH]c1cc([N+](=O)[O-])ccc12 | > 100 µM | > 100 µM | > 100 µM | > 100 µM | > 100 µM | > 100 µM | 67.9 µM | > 100 µM | > 100 µM | > 100 µM |  |  | > 100 µM | > 100 µM | > 100 µM | > 100 µM | > 100 µM | > 100 µM | > 100 µM | > 100 µM
15 | CC[C@H](C)[C@H](NC(=O)[C@H]1CCCCN1C)C(=O)N(C)[C@H](C[C@@H](OC(C)=O)c1cccc(C(=O)N[C@@H](Cc2ccccc2)C[C@H](C)C(=O)OC)n1)C(C)C | 0.0032 µM and 0.0025 µM | > 25 µM | 0.0067 µM and 0.0025 µM | > 25 µM | 0.00797 µM and 0.0056 µM | > 25 µM | 0.000632 µM and 0.0025 µM |  | 0.00317 µM and 0.0025 µM | > 25 µM | 0.00107 µM and 0.0025 µM | 0.0382 µM and 0.0333 µM | 0.00445 µM and 0.0025 µM | 0.0166 µM | 0.00433 µM and 0.0025 µM | 0.00776 µM | 0.00243 µM and 0.0025 µM | > 25 µM |  | 
16 | CC1Cc2c(Cl)ncnc2N(C)c2ccc(Cl)cc21 (stereo not drawn) | 0.386 µM | > 100 µM |  |  | 0.394 µM | 20.6 µM | 0.279 µM | 0.986 µM | 0.335 µM | 4.74 µM | 0.185 µM | 0.338 µM | 0.24 µM | 0.547 µM | 0.341 µM | > 100 µM | 0.496 µM | > 100 µM | 0.348 µM | > 100 µM
17 | CCc1cccc(C(C)C)c1NC(=O)C(=O)C1C(=O)Nc2ccccc2S1=O (stereo not drawn) |  | > 100 µM |  | > 100 µM |  | > 100 µM |  | > 100 µM |  | > 100 µM |  | > 100 µM |  | > 100 µM |  | > 100 µM |  |  |  | > 100 µM
18 | COc1cc(/C=C/c2cc(/C=C/c3ccc(O)c(OC)c3)n(C(=O)c3ccc(Cl)cc3)n2)ccc1O | 2.66 µM | 15.5 µM |  |  | 2.8 µM | 8.14 µM | 3.97 µM | 22.2 µM | 3.12 µM | 13.8 µM | 2.27 µM | 11.6 µM | 2.71 µM | 9.6 µM | 3.13 µM | 12.4 µM | 0.807 µM | 16.4 µM | 2.97 µM | 15 µM
19 | COc1ccc(C(=O)C(CN(C)C)CN(C)C)cc1 | 13.2 µM | 29.9 µM | 2.08 µM | 5.04 µM | 3.14 µM | 22.4 µM | 2.4 µM | 9.84 µM | 1.78 µM | 3.98 µM | 15.3 µM | 29 µM | 18.6 µM | 32.7 µM | 21.2 µM | 52.2 µM |  |  | 1.89 µM | 3.56 µM
20 | Cc1nc([N+](=O)[O-])cn1-c1nc2ccccn2c1[N+](=O)[O-] |  | > 100 µM |  |  |  | > 100 µM |  | > 100 µM |  | > 100 µM |  | > 100 µM |  | > 100 µM |  | > 100 µM |  | > 100 µM |  | > 100 µM
